{
  "source": "the supplement of paper PMC10307832",
  "assay_in_all_cases": "relative viability (nuclei count vs DMSO), 5 days (fraction); higher = more cells survive",
  "key": {"[1]": {"compound": "CC[C@@H]1C(=O)N(C)c2cnc(Nc3ccc(C(=O)NC4CCN(C)CC4)cc3OC)nc2N1C1CCCC1 [BI-2536] + O=C(c1cc(Cc2n[nH]c(=O)c3ccccc23)ccc1F)N1CCN(C(=O)C2CC2)CC1 [Olaparib] (partner 8 µM)", "method_in_brief": "(§1)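 Values are medians from duplicate plates. Each reflects relative viability, defined as the nuclei count of treated wells over that of vehicle wells. Lung cancer cell lines in 1536-well plates were pin-tool dosed one day after seeding with one drug alone or with a fixed anchor-drug dose plus five library-drug doses (not always all listed) in √10 steps, then fixed, stained and imaged at 4× after 5 days.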"}, "[2]": {"compound": "CC[C@@H]1C(=O)N(C)c2cnc(Nc3ccc(C(=O)NC4CCN(C)CC4)cc3OC)nc2N1C1CCCC1 [BI-2536] + C[C@]1(O)C[C@@H](c2nc(-c3ccc4ccc(-c5ccccc5)nc4c3)c3c(N)nccn32)C1 [Linsitinib] (partner 1 µM)", "method_in_brief": "as §1"}, "[3]": {"compound": "CC1CC(=O)N(C2=CN=C(N=C2N1C3CCCC3)NC4=C(C=C(C=C4)C(=O)NC5CCN(CC5)C)OC)C [NPK76-II-72-1] + Nc1ncn([C@H]2C[C@H](O)[C@@H](CO)O2)c(=O)n1 [Decitabine] (partner 2 µM)", "method_in_brief": "as §1"}, "[4]": {"compound": "CC[C@@H]1C(=O)N(C)c2cnc(Nc3ccc(C(=O)NC4CCN(C)CC4)cc3OC)nc2N1C1CCCC1 [BI-2536] + O=C(CCCCCCC(=O)Nc1ccccc1)NO [Vorinostat] (partner 1 µM)", "method_in_brief": "as §1"}},
  "data": [
    {"cell line": "UMC-11", "values": [
      {"measurement": "relative viability", "setting": "[1]; first compound 0.01 µM", "value": 0.389},
      {"measurement": "relative viability", "setting": "[1]; first compound 0.03162 µM", "value": 0.414},
      {"measurement": "relative viability", "setting": "[1]; first compound 0.1 µM", "value": 0.251},
      {"measurement": "relative viability", "setting": "[1]; first compound 0.3162 µM", "value": 0.218},
      {"measurement": "relative viability", "setting": "[1]; first compound 1 µM", "value": 0.209},
      {"measurement": "relative viability", "setting": "[2]; first compound 0.01 µM", "value": 1.02},
      {"measurement": "relative viability", "setting": "[2]; first compound 0.03162 µM", "value": 0.967},
      {"measurement": "relative viability", "setting": "[2]; first compound 0.1 µM", "value": 0.841},
      {"measurement": "relative viability", "setting": "[2]; first compound 0.3162 µM", "value": 0.207},
      {"measurement": "relative viability", "setting": "[2]; first compound 1 µM", "value": 0.172},
      {"measurement": "relative viability", "setting": "[3]; first compound 0.01 µM", "value": 0.617},
      {"measurement": "relative viability", "setting": "[3]; first compound 0.03162 µM", "value": 0.57},
      {"measurement": "relative viability", "setting": "[3]; first compound 0.1 µM", "value": 0.683},
      {"measurement": "relative viability", "setting": "[3]; first compound 0.3162 µM", "value": 0.505},
      {"measurement": "relative viability", "setting": "[3]; first compound 1 µM", "value": 0.736},
      {"measurement": "relative viability", "setting": "[4]; first compound 0.01 µM", "value": 0.343},
      {"measurement": "relative viability", "setting": "[4]; first compound 0.03162 µM", "value": 0.315},
      {"measurement": "relative viability", "setting": "[4]; first compound 0.1 µM", "value": 0.187},
      {"measurement": "relative viability", "setting": "[4]; first compound 0.3162 µM", "value": 0.18},
      {"measurement": "relative viability", "setting": "[4]; first compound 1 µM", "value": 0.145}
    ]}
  ]
}
